From PMC7732024 (Bioorganic & medicinal chemistry letters, 2012)

Tests used:
[1] = system: HCV; settings: cited from earlier work
[2] = system: HCV; settings: clinical trials, at 24 h following a single dose of 10 mg; cited from earlier work
[3] = system: subgenomic HCV 1b replicon; assay: HCV RNA replication in Huh7 cells containing a subgenomic HCV 1b replicon; assay type: cell-based, HCV genotype 1b; settings: for decrease of activity on introduction of torsion angle in the linker: one range stated for the group of compounds

Compound | decrease of activity on introduction of torsion angle in the linker ([3]; HCV 1b replicon) | anti-HCV activity (in words) ([3]; HCV 1b replicon) | also measured
COC(=O)N[C@H](C(=O)N1CCC[C@H]1c1ncc(-c2ccc(-c3ccc(-c4cnc([C@@H]5CCCN5C(=O)[C@@H](NC(=O)OC)C(C)C)[nH]4)cc3)cc2)[nH]1)C(C)C [BMS-790052] | – | – | median effective antiviral concentration (EC50) in vitro [1]: picomolar range; reduction in HCV RNA [2]: over 3 log10 IU/mL
COC(=O)N[C@H](C(=O)N1CCC[C@H]1c1ncc(-c2ccc(Oc3ccc(-c4cnc([C@@H]5CCCN5C(=O)[C@@H](NC(=O)OC)C(C)C)[nH]4)cc3)cc2)[nH]1)C(C)C [Compound 5b] | 16- to 15,000 fold | – | –
COC(=O)N[C@H](C(=O)N1CCC[C@H]1c1ncc(-c2ccc(NS(=O)(=O)c3ccc(-c4cnc([C@@H]5CCCN5C(=O)[C@@H](NC(=O)OC)C(C)C)[nH]4)cc3)cc2)[nH]1)C(C)C [Compound 5c] | 16- to 15,000 fold | – | –
COC(=O)N[C@H](C(=O)N1CCC[C@H]1c1ncc(-c2ccc(-c3ccc(-c4cnc([C@@H]5CCCN5C(=O)[C@@H](NC(=O)OC)C(C)C)[nH]4)s3)cc2)[nH]1)C(C)C [Compound 5d] | – | almost complete loss of anti-HCV activity | –
COC(=O)N[C@H](C(=O)N1CCC[C@H]1c1ncc(-c2ccc(-c3ccc(-c4ccc(-c5cnc([C@@H]6CCCN6C(=O)[C@@H](NC(=O)OC)C(C)C)[nH]5)cc4)cc3)cc2)[nH]1)C(C)C [Compound 11a] | – | low picomolar range | therapeutic index CC50/EC50 ([3]; HCV replicon assay): over four million
COC(=O)N[C@H](C(=O)N1CCC[C@H]1c1ncc(-c2ccc(-c3ccc(-c4ccc(-c5cnc([C@@H]6CCCN6C(=O)[C@@H](NC(=O)OC)C(C)C)[nH]5)cc4)nc3)cc2)[nH]1)C(C)C [Compound 11b] | – | low picomolar range | –
COC(=O)N[C@H](C(=O)N1CCC[C@H]1c1ncc(-c2ccc(-c3cccc(-c4ccc(-c5cnc([C@@H]6CCCN6C(=O)[C@@H](NC(=O)OC)C(C)C)[nH]5)cc4)c3)cc2)[nH]1)C(C)C [Compound 11c] | 16- to 15,000 fold | – | –
COC(=O)N[C@H](C(=O)N1CCC[C@H]1c1ncc(-c2ccc(-c3ccc(-c4ccc(-c5cnc([C@@H]6CCCN6C(=O)[C@@H](NC(=O)OC)C(C)C)[nH]5)cc4)s3)cc2)[nH]1)C(C)C [Compound 11d] | 16- to 15,000 fold | – | –
COC(=O)N[C@H](C(=O)N1CCC[C@H]1c1ncc(-c2ccc(-c3ccc(-c4ccc(-c5ccc(-c6cnc([C@@H]7CCCN7C(=O)[C@@H](NC(=O)OC)C(C)C)[nH]6)cc5)cc4)cc3)cc2)[nH]1)C(C)C [Compound 11e] | – | – | loss of activity at the EC50 level compared to BMS-790052 ([3]; HCV 1b replicon): 37 fold
COC(=O)N[C@H](C(=O)N1CCC[C@H]1c1ncc(-c2ccc(-c3cn(-c4ccc(-c5cnc([C@@H]6CCCN6C(=O)[C@@H](NC(=O)OC)C(C)C)[nH]5)cc4)nn3)cc2)[nH]1)C(C)C [Compound 17] | 16- to 15,000 fold | – | –
